Experimental data: US11008555B2 (The Regents of the University of California, priority 2015, dated 2021)

tested on: chromosomal GFP; assay: CRISPRi GFP repression assay in E. coli; assay type: cell-based, Escherichia coli MG1655; details: ligand dose response on arC9:231, SOB media, normalized to vector control
Source text: Escherichia coli MG1655, which have chromosomally integrated constitutive GFP and RFP expression, were used for in vivo screening, fluorescence measurements, and transformation assays. Cell transformation, plasmid maintenance, and verification of transformation were done as previously described using AmpR and CmR as selectable markers. EZ-rich defined growth medium (EZ-RDM, Teknoka) was used for in vivo fluorescence assays unless otherwise noted. Super optimal broth (S.O.B) medium was used for library outgrowth and screening. The arC9 ligands used (4-hydroxytamoxifen (4-HT), nafoxidine, beta-estradiol, and diethylstilbestrol) were all ordered from Sigma and resuspended in dimethyl sulfoxide (DMSO).
For individual PDZ-construct testing, colonies were cultured from plates, PDZ-dCas9 plasmid DNA recovered, separated from the RFP guide plasmid (pgRNA-bacteria Addgene ID: 44251) via restriction digestion with BsaI and co-transformed with a guide plasmid to repress chromosomal GFP. GFP repression for each construct was then tested in triplicate in a 96-well microplate reader (Tecan M1000) at 37° C. PDZ clones were grown with appropriate antibiotics, 0.2 nM aTc, dCas9, and inducer. OD600 nm absorbance was measured for each well. GFP signal was measured, normalized for OD600 nm and compared when the cultures were approaching saturation (80% of the maximum OD600 nm) The arC9 construct was treated and assayed in the same fashion as above with induction using […]. Fold changes for the effect of different ligands were calculated by normalizing the GFP/OD600 of the arC9 construct to that of a vector control and dividing the fluorescent values without ligand by the fluorescent values with ligand treatment. For single cell analysis of arC9, cells were grown for ˜6 hours with antibiotics and inducer, washed with PBS, and assayed for GFP fluorescence using a Sony SH800 cell sorter.

Compound	effect of ligand on arC9:231 CRISPRi-based GFP repression
4-hydroxytamoxifen [4-HT]	increased
C[C@]12CC[C@@H]3c4ccc(O)cc4CC[C@H]3[C@@H]1CC[C@@H]2O [beta-estradiol]	increased only with ligands that encourage the ER-LBD to enter an antagonist conformation
CC/C(=C(/CC)c1ccc(O)cc1)c1ccc(O)cc1 [diethylstilbestrol]	increased only with ligands that encourage the ER-LBD to enter an antagonist conformation
COc1ccc2c(c1)CCC(c1ccccc1)=C2c1ccc(OCCN2CCCC2)cc1 [nafoxidine]	increased
